We go through eight molecules from patent US8088776B2 (Eli Lilly and Company, priority 2006, dated 2012).

The target of assay [1] is recombinant human 11β-HSD type 1 enzyme (Homo sapiens, UniProt P28845). Briefly: 11β-HSD Type 1 Enzyme Assay (NADPH fluorescence). The note with it: three hour incubation, read-out: Human 11-βHSD1 IC50. The assay is classed as biochemical. Here is the method: 11β-HSD Type 1 Enzyme Assay
Human 11β-HSD type 1 activity is measured by assaying NADPH production by fluorescence assay. Solid compounds are dissolved in DMSO to a concentration of 10 mM. Twenty microliters of each are then transferred to a column of a 96-well polypropylene Nunc plate where they are further diluted 50-fold followed by subsequent two-fold titration, ten times across the plate with additional DMSO using a Tecan Genesis 200 automated system. Plates are then transferred to a Tecan Freedom 200 system with an attached Tecan Temo 96-well head and an Ultra 384 plate reader. Reagents are supplied in 96-well polypropylene Nunc plates and are dispensed individually into black 96-well Molecular Devices High Efficiency assay plates (40 μL/well capacity) in the following fashion: 9 μL/well of substrate (2.22 mM NADP, 55.5 μM Cortisol, 10 mM Tris, 0.25% Prionex, 0.1% Triton X100), 3 μL/well of water to compound wells or 3 μL to control and standard wells, 6 μL/well recombinant human 11β-HSD type 1 enzyme, 2 μL/well of compound dilutions. […] Final DMSO concentration is 0.5% for all compounds, controls and standards. […] Plates are then shaken once more for 15 seconds then placed into an Ultra 384 microplate reader (355EX/460EM) for detection of NADPH fluorescence.

For assay [2], the system named is cortisone to cortisol conversion (11β-HSD1) in male C57BL/6 mice. Briefly: Acute In Vivo Cortisone Conversion Assay. The conditions noted are these: oral dose of 10 mg/kg, cortisone challenge 16 hours post dose, serum cortisol. As to the method:
Acute In Vivo Cortisone Conversion Assay
In general, compounds are dosed orally into mice, the mice are challenged with a subcutaneous injection of cortisone at a set timepoint after compound injection, and the blood of each animal is collected some time later. Separated serum is then isolated and analyzed for levels of cortisone and cortisol by LC-MS/MS, followed by calculation of mean cortisol and percent inhibition of each dosing group. Specifically, male C57BL/6 mice are obtained from Harlan Sprague Dawley at average weight of 25 grams. Exact weights are taken upon arrival and the mice randomized into groups of similar weights. Compounds are prepared in 1% w-w HEC, 0.25% w-w polysorbate 80, 0.05% w-w Dow Corning antifoam #1510-US at various doses based on assumed average weight of 25 grams. Compounds are dosed orally, 200 μl per animal, followed by a subcutaneous dose, 200 μl per animal, of 30 mg/kg cortisone at 1 to 24 hours post compound dose. At 10 minutes post cortisone challenge, each animal is euthanized for 1 minute in a CO2 chamber, followed by blood collection via cardiac puncture into serum separator tubes. Once fully clotted, tubes are spun at 2500×g, 4° C. for 15 minutes, the serum transferred to wells of 96-well plates (Corning Inc, Costar #4410, cluster tubes, 1.2 ml, polypropylene), and the plates are frozen at −20° C. until analysis by LC-MS/MS. […]

The target of assay [3] is T1, 11β-HSD1 in primary human aortic smooth muscle cells (AoSMC) (Homo sapiens, UniProt P28845).
T1 construct: containing 12 ng/mL hTNFα to induce expression of 11β-HSD1; endogenous in cells; host or cells: primary human aortic smooth muscle cells (AoSMC), induced with hTNFα
T1 sequence (P28845 whole entry): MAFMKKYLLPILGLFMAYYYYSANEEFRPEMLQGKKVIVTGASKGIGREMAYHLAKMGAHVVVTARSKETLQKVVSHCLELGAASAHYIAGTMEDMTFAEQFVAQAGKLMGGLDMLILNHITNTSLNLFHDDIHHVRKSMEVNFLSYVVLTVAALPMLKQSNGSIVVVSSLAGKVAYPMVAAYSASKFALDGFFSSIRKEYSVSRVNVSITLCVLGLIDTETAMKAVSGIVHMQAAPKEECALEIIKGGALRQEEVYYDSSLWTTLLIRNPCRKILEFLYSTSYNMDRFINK
Kind of assay: Human Aortic Smooth Muscle Cell Assay (cortisone to cortisol conversion). The class given is cell-based. The conditions noted are these: AoSMC induced with hTNFα; cortisol by time resolved immunoassay. Here is the method:
Human Aortic Smooth Muscle Cell Assay
Primary human aortic smooth muscle cells (AoSMC) are cultured in 5% FBS growth medium to a passage number of 6, then pelleted by centrifugation and resuspended at a density of 9×10^4 cells/mL in 0.5% FBS assay medium containing 12 ng/mL hTNFα to induce expression of 11β-HSD1. Cells are seeded into 96-well tissue culture assay plates at 100 μL/well (9×10^3 cells/well) and incubated for 48 hours at 37° C., 5% CO2. Following induction, cells are incubated for 4 hours at 37° C., 5% CO2 in assay medium containing test compounds then treated with 10 μL/well of 10 μM cortisone solubilized in assay medium, and incubated for 16 hours at 37° C., 5% CO2. Medium from each well is transferred to a plate for subsequent analysis of cortisol using a competitive fluorescence resonance time resolved immunoassay. In solution, an allophycocyanin (APC)-cortisol conjugate and free cortisol analyte compete for binding to a mouse anti-cortisol antibody/Europium (Eu)-anti mouse IgG complex. Higher levels of free cortisol result in diminishing energy transfer from the Europium-IgG to the APC-cortisol complex resulting in less APC fluorescence. Fluorescent intensities for Europium and APC are measured using a LJL Analyst AD. Europium and APC excitation is measured using 360 nm excitation and 615 nm and 650 nm emission filters respectively. Time resolved parameters for Europuium were 1000 μs integration time with a 200 μs delay. APC parameters are set at 150 μs integration time with a 50 μs delay. Fluorescent intensities measured for APC are modified by dividing by the Eu fluorescence (APC/Eu). This ratio is then used to determine the unknown cortisol concentration by interpolation using a cortisol standard curve fitted with a 4-parameter logistic equation. These concentrations are then used to determine compound activity by plotting concentration versus % inhibition, fitting with a 4-parameter curve and reporting the IC50.

The structures appear in SMILES notation.

Sequence of recombinant human 11β-HSD type 1 enzyme (P28845 whole entry): as above

On to `O=C(c1ccc(-c2cc(Cl)c(CC3CCN(C4CCCCC4)C3=O)c(Cl)c2)cc1)N1CCN(CCF)CC1` (single isomer, unassigned) [Example 62, 1-cyclohexyl-3-{3,5-dichloro-4′-[4-(2-fluoro-ethyl)-piperazine-1-carbonyl]-biphenyl-4-ylmethyl}-pyrrolidin-2-one], for which the IC50 in assay [1] amounted to 115 nM. Moreover, the “% Inhibition after 16 hours (dose of 10 (mg/kg))” value in assay [2] turned out to be 85%.

The molecule `O=C(c1ccc(-c2cc(Cl)c(CC3CCN(C4CCCCC4)C3=O)c(Cl)c2)cc1)N1CCOCC1` (stereo not shown) [Example 4, 1-Cyclohexyl-3-[3,5-dichloro-4′-(morpholine-4-carbonyl)-biphenyl-4-ylmethyl]-pyrrolidin-2-one] registered an IC50 in assay [3] of 4.3 nM.

In assay [3], `COCCN(CCOC)C(=O)c1ccc(-c2cc(Cl)c(CC3CCN(C4CCCCC4)C3=O)c(Cl)c2)cc1` (stereo not shown) [Example 5] had an IC50 of 6.4 nM.

`O=C(c1ccc(-c2cc(Cl)c(CC3CCN(C4CCCCC4)C3=O)c(Cl)c2)cc1)N1CCNCC1` (stereo not shown) [Example 49, 1-cyclohexyl-3-[3,5-dichloro-4′-(piperazine-1-carbonyl)-biphenyl-4-ylmethyl]-pyrrolidin-2-one]: in assay [3], the IC50 came to 11.4 nM.

`O=C(c1ccc(-c2cc(Cl)c(CC3CCN([C@H]4CC[C@@H](O)CC4)C3=O)c(Cl)c2)cc1)N1CCS(=O)(=O)CC1` (stereo partly drawn) [Example 74, 3-[3,5-Dichloro-4′-(1,1-dioxo-1-lambda*6*-thiomorpholine-4-carbonyl)-biphenyl-4-ylmethyl]-cis-1-(4-hydroxy-cyclohexyl)-pyrrolidin-2-one]: in assay [3], half-maximal inhibition (IC50) required 6 nM.

For `O=C(c1ccc(-c2cc(Cl)c(C[C@@H]3CCN(C4CC=CCC4)C3=O)c(Cl)c2)cc1)N1CCC(C(F)(F)F)CC1` (stereo partly drawn) [Example 92, (R)-1-cyclohex-3-enyl-3-[3,5-dichloro-4′-(4-trifluoromethyl-piperidine-1-carbonyl)-biphenyl-4-ylmethyl]-pyrrolidin-2-one], the IC50 in assay [3] is 36.8 nM; in assay [1], 633 nM.

For `O=C(c1ccc(-c2cc(Cl)c(C[C@@H]3CCN(C4CCOCC4)C3=O)c(Cl)c2)cc1)N1CCC(C(F)(F)F)CC1` [Example 95, (R)-3-[3,5-dichloro-4′-(4-trifluoromethyl-piperidine-1-carbonyl)-biphenyl-4-ylmethyl]-1-(tetrahydro-pyran-4-yl)-pyrrolidin-2-one], the “% Inhibition after 16 hours (dose of 10 (mg/kg))” value in assay [2] is given as 80%.

`O=C(c1ccc(-c2cc(Cl)c(C[C@@H]3CCN(C4CCOCC4)C3=O)c(Cl)c2)cc1)N1CCS(=O)(=O)CC1` [Example 99, (R)-3-[3,5-Dichloro-4′-(1,1-dioxo-116-thiomorpholine-4-carbonyl)-biphenyl-4-ylmethyl]-1-(tetrahydro-pyran-4-yl)-pyrrolidin-2-one] returned an IC50 in assay [3] of 72.8 nM.

As usually defined, the IC50 is the midpoint of a concentration-inhibition curve.
